# Source: patent US6180803A, “19-nor-pregnene derivatives and pharmaceuticals containing such derivatives” (priority 1996, dated 2001)
# How the values were obtained:
# [1] = system: human T47-D cell progesterone receptor; assay: Relative binding affinity to human T47-D cell progesterone receptor ([3H]-ORG 2058 displacement); details: for IC50: mean ± s.e.m., 2 nM [3H]-ORG 2058, 3 hours at 4° C., T47-D cell PR, read-out: ED50 (concentration inhibiting 50% of the specific binding of [3H]-ORG 2058); for RBA (relative binding affinity): relative to nomegestrol acetate = 100%
# Method: (§1) The progestational activity of the compounds according to the present invention can be assessed mainly in two specific experimental models the affinity for the progesterone receptor (PR) in vitro, and the endometrial tranformation of the rabbit uterus in vivo. Human PRs are readily available in high amounts from the T47-D cell line in culture (M. B. Mockus et al., Endocrinology, 1982, 110, 1564-1571). Relative binding affinities (RBA) for the human T47-D cell PR are determined as previously described (J. Botella et al., J. Steroid Biochem. Molec. Biol., 1994, 50, 41-47) using [^3 H]-ORG 2058 as a labelled specific ligand (G. Fleischmann and M. Beato, Biochim. Biophys. Acta, 1978, 540, 500-517) and nomegestrol acetate as a non-radioactive reference progestin. Competitive incubations were performed against 2 nM of [^3 H]-ORG 2058 for 3 hours at 4° C. with […] of non-labelled steroid, chosen between 4 and 256 nM following a 1/2^n dilution scheme. Displacement curves were fitted for each experiment, and the concentration inhibiting 50% of the specific binding of [^3 H]-ORG 2058 was calculated for each curve (IC50).
# [2] = system: uterus of estrogen-primed immature female rabbits (endometrial transformation); assay: Clauberg-McPhail test by oral administration (gavage), endometrial transformation of the rabbit uterus; type: in vivo; details: for ED50 (dose for mean McPhail grade equal to 2): mean ± s.e.m., total dose/rabbit/5 days; for Relative activity: relative to nomegestrol acetate = 100%
# Method: as §1
# One specific pharmacological test has been standardized in vivo for the detection and quantitation of pseudogestagenic activity since the mid-30's: it is based on the property of the uterus of estrogen-primed immature female rabbits to respond to very slight amounts of progestin by a typical endometrial transformation into a densely packed and interlaced epithelial network called "dentelle". The original test schedule, which includes 6 days of estrogen priming (total subcutaneous dose of 30 μg/rabbit of oestradiol benzoate) followed by 5 days of progestational treatment, was designed as early as 1930 by C. Clauberg, Zentr. Gynakol. 1930, 54, 2757-2770. The semi-quantitative scale used to grade the intensity of the microscopical appearance of the dentelle was set up by M. K. McPhail, J. Physiol (London), 1934, 83, 145-156. This overall Clauberg-McPhail procedure has been extensively used to screen steroids for putative progestational activity in vivo and is still part of the basic hormonal profile of any new progestin such as norgestimate (A Phillips et al., Contraception, 1987, 36, 181-192), or desogestrel (J. Van der Vies and J. De Visser, Arzneim. Forsch/Drug Res., 1983, 33, 231-236). The progestational potency is inversely related to the dose needed to induce a half-maximal stimulation of the dentelle, i.e. to record a mean McPhail grade equal to 2. This ED50 is deduced from the dose-responsecurve and expressed in total dose/rabbit/5 days. All compounds were tested only following oral administration by gavage, in suspension in a carboxy-methylcellulose solution.
# [3] = system: ventral prostate and seminal vesicle of immature castrated male rats; assay: Residual androgenic activity in the immature castrated male rat model; type: in vivo; details: for Seminal Vesicle weight / Ventral Prostate weight: 10 daily administrations; for effect on the growth of male accessory sex organs (residual androgenic activity): in words, gavage (PO), Tables 3 and 4
# Description: The residual androgenic potential is an important feature to be evaluated for any new progestin, because it is highly predictive of androgenic side-effects in women. One pharmacological model of androgenic activity has been standardized to screen steroids or related compounds in immature castrated male rats, using the hypertrophy of the vental prostate and of the seminal vesicle as the endpoint, following 10 daily administrations (R. I. Dorfman, in Methods in Hormone Research, volume 2, London, Academic Press, 1962: 275-313; A. G. Hilgar and D. J. Hummel, Androgenic and Myogenic Endocrine Bioassay Data, U.S. Department of Health, Education and Welfare, Washington D.C., 1964).
# [4] = system: uterus of estrogen-primed immature female rabbits (endometrial transformation); details: in words, known from the literature; cited from earlier work
# [5] = system: ventral prostate and seminal vesicle of immature castrated male rats; details: well-known from the literature (Tausk and de Visser); cited from earlier work
# [6] = Table 4, PO, 20 mg/animal/day, mean ± s.e.m. of 7 or 8 animals, castrated controls 10.4 ± 0.6, both ns
# [7] = Table 4, PO, 20 mg/animal/day, mean ± s.e.m. of 7 or 8 animals, castrated controls 11.8 ± 0.6, cyproterone acetate p <0.05, Example 4 ns
# [8] = Table 3, PO, 20 mg/animal/day, mean ± s.e.m. of 8 animals, castrated controls 12.0 ± 0.9, medroxyprogesterone acetate p <0.001, Example 1 ns
# [9] = Table 3, PO, 20 mg/animal/day, mean ± s.e.m. of 8 animals, castrated controls 12.3 ± 0.7, medroxyprogesterone acetate p <0.01, Example 1 ns
Compound,IC50 [1] [nM],RBA (relative binding affinity) [1] [%],ED50 (dose for mean McPhail grade equal to 2) [2] [μg/rabbit 5 days],Relative activity [2] [%],effect on the growth of male accessory sex organs (residual androgenic activity) [3],also measured
"CC(=O)O[C@]1(C(C)=O)CC[C@H]2[C@@H]3C[C@H](C)C4=CC(=O)[C@@H]5C[C@@H]5[C@@H]4[C@H]3CC[C@@]21C [Example 4, 17α-acetoxy-1α,2α-methylene-6α-methyl-3,20-dioxo-19-nor-pregna-4-ene]",22.8 ± 1.7,39,66 ± 11,258,totally inactive,"Seminal Vesicle weight [3, 6]: 11.2 ± 0.5 mg; Ventral Prostate weight [3, 7]: 12.1 ± 0.4 mg"
"CC(=O)O[C@]1(C(C)=O)CC[C@H]2[C@@H]3C=C(C)C4=CC(=O)CC[C@@H]4[C@H]3CC[C@@]21C [Nomegestrol acetate, reference compound]",8.9 ± 2,100,170 ± 41,100,,progestational activity [4]: potent orally active
CC(=O)O[C@]1(C(C)=O)CC[C@H]2[C@@H]3C[C@H](C)C4=CC(=O)CC[C@]4(C)[C@H]3CC[C@@]21C [Medroxyprogesterone acetate],,,,,caused both organs to more or less double in weight,"androgenic properties [5]: weak androgenic properties; Ventral Prostate weight [3, 8]: 29.1 ± 1.4 mg; Seminal Vesicle weight [3, 9]: 19.9 ± 1.8 mg"
"CC(=O)O[C@]1(C(C)=O)CC[C@H]2[C@@H]3C[C@H](C)C4=CC(=O)[C@H]5C[C@H]5[C@@H]4[C@H]3CC[C@@]21C [Example 5, 17α-acetoxy-1β,2β-methylene-6α-methyl-3,20-dioxo-19-nor-pregna-4-ene]",17.7 ± 2.4,50,> 750 ± 6.0,> 17,,
CC(=O)O[C@]1(C(C)=O)CC[C@H]2[C@@H]3C=C(Cl)C4=CC(=O)[C@@H]5C[C@@H]5[C@]4(C)[C@H]3CC[C@@]21C [Cyproterone acetate],,,,,"very weak and limited to the ventral prostate, at the border of statistical significance","progestational activity [4]: potent progestational activity; Seminal Vesicle weight [3, 6]: 11.3 ± 0.6 mg; Ventral Prostate weight [3, 7]: 15.3 ± 1.3 mg"
"CC(=O)O[C@]1(C(C)=O)CC[C@H]2[C@@H]3CC(C)(C)C4=CC(=O)CC[C@@H]4[C@H]3CC[C@@]21C [Example 1, 17α-acetoxy-6,6-dimethyl-3,20-dioxo-19-nor-pregna-4-ene]",27.8 ± 2,32,152 ± 28,112,totally inactive,"Ventral Prostate weight [3, 8]: 13.0 ± 0.3 mg; Seminal Vesicle weight [3, 9]: 10.4 ± 0.5 mg"
C[C@]12CC[C@H]3[C@@H](CCC4=CC(=O)CC[C@@]43C)[C@@H]1CC[C@@H]2O [Testosterone],,,,,,"Ventral Prostate weight ([3]; Table 3, SC, 0.05 mg/animal/day, mean ± s.e.m. of 8 animals, castrated controls 12.0 ± 0.9, *** p <0.001): 90.4 ± 4.4 mg; Seminal Vesicle weight ([3]; Table 3, SC, 0.05 mg/animal/day, mean ± s.e.m. of 8 animals, castrated controls 12.3 ± 0.7, *** p <0.001): 90.3 ± 6.7 mg; Seminal Vesicle weight ([3]; Table 4, SC, 0.05 mg/animal/day, mean ± s.e.m. of 7 or 8 animals, castrated controls 10.4 ± 0.6, *** p <0.001): 79.0 ± 5.3 mg; Ventral Prostate weight ([3]; Table 4, SC, 0.05 mg/animal/day, mean ± s.e.m. of 7 or 8 animals, castrated controls 11.8 ± 0.6, *** p <0.001): 80.9 ± 3.4 mg"
